According to PubChem BioAssay (NCI):
Where “and” joins values, the source holds several entries; their conditions need not be identical. Equal entries are not always repeated.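 Protocol summary: plate cells (96-well), add compound at 5 concentrations, incubate 48 h, interpolate endpoints linearly. Abbreviation: GI50, concentration required for 50% inhibition of growth. At the TGI there is no net growth.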

Assays:
Assay in all cases: growth of human tumour cells (NCI), 48 h
K-562 leukemia = tested on: K-562 leukemia
OVCAR-3 ovarian = tested on: OVCAR-3 ovarian
RPMI-8226 leukemia = tested on: RPMI-8226 leukemia
HT29 colon = tested on: HT29 colon
ACHN renal = tested on: ACHN renal
SK-MEL-28 melanoma = tested on: SK-MEL-28 melanoma
HCT-15 colon = tested on: HCT-15 colon
HL-60(TB) leukemia = tested on: HL-60(TB) leukemia
MDA-MB-435 = tested on: MDA-MB-435

SMILES	TGI (K-562 leukemia) [µM]	TGI (OVCAR-3 ovarian) [µM]	TGI (RPMI-8226 leukemia) [µM]	TGI (HT29 colon) [µM]	TGI (ACHN renal) [µM]	TGI (SK-MEL-28 melanoma) [µM]	TGI (HCT-15 colon)	TGI (HL-60(TB) leukemia) [µM]	GI50 (HCT-15 colon) [µM]	GI50 (MDA-MB-435) [µM]	TGI (MDA-MB-435) [µM]	GI50 (K-562 leukemia) [µM]	GI50 (HL-60(TB) leukemia) [µM]	GI50 (OVCAR-3 ovarian) [µM]	GI50 (RPMI-8226 leukemia) [µM]	GI50 (ACHN renal) [µM]	GI50 (SK-MEL-28 melanoma) [µM]	GI50 (HT29 colon) [µM]
Nc1ncnc2c1ncn2COC/C=C/I	> 100	> 100	> 100	> 100	> 100	> 100												
CCOc1cc[n+](C(=C=[N-])C#N)cc1	> 100	> 100	> 100	> 100			> 100 µM	> 100										
O=S1(=O)C=C(c2ccccc2)C(c2ccccc2)=C1	> 100	2.9	7.92		2.88	3.18	3.15 µM	5.21	1.53	1.41	3.33	1.83	2.14	1.56	3.3	1.55	1.77	
N#CCCn1c(CCC(=O)Nc2ccc(Cl)cc2Cl)n[nH]c1=S	> 100	> 100	> 100	> 100	> 100	> 100	> 100 µM	> 100										
Cc1ccc(SSCCCCS(=O)O)cc1	> 100	67.7		53.7	62.7	44.1	89.2 µM	20.4										
Cc1ccccc1NC(=O)CC(=O)n1nc(-c2ccccc2)c(N=Nc2ccc([N+](=O)[O-])cc2)c1-c1ccccc1	48.9	37.3	69.4	24.5	44.5	96.9		60.5										
CCOc1ccccc1NC(=O)C(=O)c1c(O)c2ccc(O)cc2oc1=O	> 100	> 100		> 100	> 100	> 100	> 100 µM	> 100										
CCCCCC/C(CC(=O)CCC(=O)NCCc1ccccc1)=N\NC(=O)c1ccc2ccccc2c1O		> 100	> 100	> 100	> 100	> 100		33.7										
C#Cc1ccccc1N1C(=O)C=CC1=O	> 100	> 100	> 100	> 100	> 100	> 100		> 100										
CC(=O)N1CCN(C=S)CC1	> 100	> 100	> 100	> 100	> 100	> 100	> 100 µM	> 100										
ClCCCN1CCCCC1CCl (stereo unspecified)	> 100	> 100	> 100	> 100	> 100	> 100	> 100 µM	> 100										
CN(C)c1ccc(/C=c2\sc3nnc(Cc4ccccc4)n3c2=O)cc1	> 100	> 100	> 100	> 100	> 100	> 100	> 10 µM and 37.8 µM	> 10	> 10			> 100		> 100	> 100	> 10	> 100	> 10
N#CC1([N+](=O)[O-])C=C1c1ccccc1 (stereo unspecified)	71.5	> 100	49.5	> 100	> 100		> 100 µM	46.3										
CN/N=C(/CC(=O)c1sc(NNC(C)=O)nc1C)C(=O)Nc1ccc(OC)cc1OC	> 100	> 100	> 100	> 100	> 100	> 100	> 100 µM	> 100										
OCC(O)C(OC1OC(CO)C(O)C(O)C1O)c1nn(-c2ccc(Cl)cc2)c2nc3cc(Cl)ccc3nc12 (stereo unspecified)	> 100	> 100	> 100	> 100	> 100	> 100	> 100 µM											
CCOC(=O)C1C(=O)c2cccc(OC)c2C2COC(=O)N12 (stereo unspecified)	> 100	> 100	> 100	> 100	> 100	> 100	> 100 µM	> 100										
N#CC12CC3(CCC1CCC1(C2)OCCO1)OCCO3 (stereo unspecified)	> 100	> 100	> 100		> 100	> 100	> 100 µM	> 100										
CC(=O)Nc1ccccc1S(=O)c1ccccc1 (stereo unspecified)	> 100	> 100	> 100	> 100	> 100	> 100	> 100 µM	> 100										
